Data from patent US20120315654A1, “COMPOSITIONS AND METHODS FOR DETECTING CARDIOTOXICITY” (DUKE UNIVERSITY, priority 2011, published 2012).
Each block holds one molecule with its values, some of them ahead of it.

Assays:
[1] = molecular target: T1, CrT (Homo sapiens, UniProt P48029); test: 14C-Cr transport in HL-1 cells expressing the human CrT protein (dose-response, time course, kinetics); format: cell-based; details: HL-1 cells expressing human CrT, Michaelis-Menten, no DOX
T1 construct: swapped with the corresponding fragment from the human full-length open reading frame; expressed in transfected cells; host or cells: HL-1 murine atrial cardiomyocyte line, transient transfection with pcDNA3.1(-) human CrT cDNA
T1 sequence (P48029 1-635): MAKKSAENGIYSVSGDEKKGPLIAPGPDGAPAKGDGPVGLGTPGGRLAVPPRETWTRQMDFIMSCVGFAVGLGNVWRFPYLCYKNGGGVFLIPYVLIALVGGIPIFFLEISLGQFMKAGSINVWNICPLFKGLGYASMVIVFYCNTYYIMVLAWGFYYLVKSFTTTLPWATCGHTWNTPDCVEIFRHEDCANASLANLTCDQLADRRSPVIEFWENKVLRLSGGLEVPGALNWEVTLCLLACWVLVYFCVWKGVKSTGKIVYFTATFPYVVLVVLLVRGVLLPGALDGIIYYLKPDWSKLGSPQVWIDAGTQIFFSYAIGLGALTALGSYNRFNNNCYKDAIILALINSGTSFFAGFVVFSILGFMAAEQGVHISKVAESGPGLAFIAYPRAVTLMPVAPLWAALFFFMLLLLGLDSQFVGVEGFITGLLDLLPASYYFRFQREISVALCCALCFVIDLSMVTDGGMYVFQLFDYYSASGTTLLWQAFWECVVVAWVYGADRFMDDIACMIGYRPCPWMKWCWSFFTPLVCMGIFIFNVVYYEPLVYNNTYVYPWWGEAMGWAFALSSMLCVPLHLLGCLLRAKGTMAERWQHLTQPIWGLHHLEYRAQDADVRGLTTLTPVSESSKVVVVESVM
Protocol: The cultures were maintained in a humidified atmosphere of 5% CO2 at 37° C.
(§1) Cells used for Cr transport assays were cultured in 24-well plates coated with fibronectin and gelatin. The wells were washed twice with room temperature choline buffer (150 mmol/L choline chloride; 1 mmol/L CaCl2; 5 mmol/L MgCl2; 2 mmol/L KCl; and 5 mmol/L HEPES-Tris, pH 7.5).
(§2) The cells were lysed with 500 mmol/L NaOH and heated to 80° C. for 30 min. 100 μl of cell lysate was subjected to scintillation counting using a BECKMAN COULTER LS 6500 scintillation counter. Cr transport was normalized to the protein concentration measured using the bicinchoninic acid (BCA) protein assay (PIERCE BIOTECHNOLOGY, Rockford, Ill.).

[2] = molecular target: T2, Cr transport (Homo sapiens, UniProt P48029); details: Dai W. et al., 1999; read-out: IC50 for inhibition of Cr transport; cited from earlier work
T2 sequence (P48029 1-635): T1 sequence (P48029 1-635)

[3] = molecular target: T1, CrT; test: DOX competition assay: 14C-Cr uptake in the presence of DOX and/or B-GPA; format: cell-based; details: acute exposure during uptake; 2 μmol/L DOX, 100 μmol/L B-GPA; control = 1.00
Protocol: as §1, §2

[4] = substrate: CN(CC(=O)O)C(=N)N; test: 14C-Cr transport in HL-1 cells expressing the human CrT protein (dose-response, time course, kinetics); format: cell-based; details: other: HL-1 cells expressing human CrT, Michaelis-Menten, no DOX; pH 7.5
Protocol: Cells were plated on tissue culture dishes pre-coated with gelatin/fibronectin and allowed to grow in M199 media (INVITROGEN, Carlsbad, Calif.) containing 2% serum before experimentation. […] The cultures were maintained in a humidified atmosphere of 5% CO2 at 37° C.
Cultures intended for Cr transport measurements were grown in 24-well culture plates, whereas those used to characterize the CrT protein were cultured in 6-well dishes.
Cr transport assays were performed after growth in control media for 0, 4, 12, 24 or 48 hrs.
For experiments with RNCM, each condition was tested in quadruplicate. Measurements were performed in triplicate for experiments performed using HL-1 cells.

Cr transport Vmax [1]: 42.9±5.24 nmol/mg protein
Molecule: CN(CC(=O)O)C(=N)N [Cr, Creatine]

Relative Vmax ± SEM [3]: 0.43 ± 0.11
Molecule: NC(N)=NCCC(=O)O [β-GPA]
IC50 [2]: 50 µM

B1: human CrT (Homo sapiens) (protein)
chain: T1 sequence (P48029 1-635)
notes: swapped with the corresponding fragment from the human full-length open reading frame; expressed in transfected cells; host or cells: HL-1 murine atrial cardiomyocyte line, transient transfection with pcDNA3.1(-) human CrT cDNA
Km [4]: 63.5 ± 2.37 µM
